Reference: a melting point compilation (Tetko et al.; mined from patent text by program, amines drawn as free bases though some values may be those of a salt)

melting point	SMILES
56 to 58 °C	COc1cc(SC)sc1C1NC(C)(C)CO1 (stereo unspecified)
158 °C	CN=C1SC2Cc3ccc(S(C)(=O)=O)cc3C2(O)N1C (stereo unspecified)
79 to 80 °C	COc1ccc(COCc2nc(C(C)C)c(Sc3cc(Cl)cc(Cl)c3)n2C)cc1
> 250 °C	COc1cc(NC(=O)C(C#N)=CNc2ccc(Br)c(OC)c2)c(Cl)cc1Cl
112 °C	Cc1ccc(CC(C(=O)C(Cc2ccc(C)cc2C)N2C(=O)c3ccccc3C2=O)N2C(=O)c3ccccc3C2=O)c(C)c1 (stereo unspecified)
124 to 126 °C	CC(C)NCC(O)COc1ccccc1C1=NNC(=O)CC1 (stereo unspecified)
72 to 75 °C	CC(=O)Oc1ccc(CCC2CC(C)(OC(C)=O)CC(=O)O2)cc1 (stereo unspecified)
237 to 238 °C	O=c1c(-c2ccc(O)cc2)coc2ccccc12
200 to 205 °C	O=C(O)CCC(=O)N[C@@H](Cc1ccc(-c2ccccc2)cc1)C(=O)NCCCCNc1ncccn1
123 to 125 °C	CC(C#N)(C(N)=O)c1cccc(Oc2ccccc2)c1 (stereo unspecified)
177 to 179 °C	CC(=NOCCOc1ccc(CC2OC(=O)NC2=O)cc1)c1ccc(-c2ccccc2)cc1 (stereo unspecified)
86 to 89 °C	CCCCCCc1c(Br)c(-c2ccccc2)n(-c2ccc(C)cc2)c1-c1ccccc1
136 °C	N#Cc1ccc(NN)cc1F
104 to 105 °C	CCN(CC)CCCNC(=O)Cn1ncc(-c2ccc(Cl)cc2)c1-c1ccccc1
143 to 145 °C	Clc1cccc(Oc2nnc(Cc3ccncc3)c3ccccc23)c1
81 °C	CC(C)(C)C(O)(CC(Br)=CBr)Cn1cncn1 (stereo unspecified)
172 to 175 °C	O=C(O)CCCNS(=O)(=O)c1ccc(NC(=O)Nc2ccc(C(F)(F)F)cc2)cc1
128 to 130 °C	O=C(C1CCc2nc[nH]c2C1)N1CCc2ccccc2C1 (stereo unspecified)
183 to 184 °C	N#Cc1ccc(C(F)(F)F)cc1N=NNc1cc(C(F)(F)F)ccc1C#N
159 to 160 °C	CCC1(CC)COP(=O)(Cc2ccc([N+](=O)[O-])cc2)OC1
120 °C	COC(=O)c1ccc(OC)c(NC(=N)c2ccc(F)c(Cl)c2)c1
265 to 267 °C	COc1ccc(Cl)cc1-c1c(N)c(=O)[nH]c2cc(C(F)(F)F)cc(C(F)(F)F)c12
180 °C	CCOC(=O)c1nccn1C1Cc2ccc(Cl)cc2C1=O (stereo unspecified)
200 to 202 °C	CC(C)c1nc(-c2cccnc2)c[nH]c1=O
92 to 95 °C	CCCCc1nn2cccc(C(=O)OC)c2c1Cc1ccc(-c2ccccc2C#N)cc1

melting point	SMILES
97.4 °C	COc1ccc2c(c1)C(C(=O)O)CCO2 (stereo unspecified)
105 to 107 °C	COC(=O)COc1ccc(C(=O)CBr)cc1OC
265 to 268 °C	O=C1Cc2ccc3ccccc3c2C(c2ccccc2F)N1 (stereo unspecified)
180 to 182 °C	c1ccc2c(c1)CCN(Cc1n[nH]c3c1CCc1ccccc1-3)C2
174 to 176 °C	O=c1c2ccccc2[nH]c(=S)n1CCCO
180 to 182 °C	COc1ccc2c(Cc3ncc(Cl)cc3Cl)nncc2c1C=Cc1ccccc1
128 to 130 °C	COCCOc1nc(N)nc(-c2ccccc2)c1-c1ccc(=O)n(C(C)C)n1
116 to 119 °C	C[C@@H]1Cc2ccsc2[C@H](C)N1CCNC(=O)c1c(F)c(F)c(F)c(F)c1F (relative stereo)
148 to 149 °C	CCCN1CC(c2cccc(Cl)c2)=C(c2ccc(S(C)(=O)=O)cc2)C1=O
116 to 124 °C	COc1ccccc1C1(C(=O)O)CCCC1
200 °C	Nc1cc([N+](=O)[O-])ccc1OCC(O)CN1C(=O)CCC1=O (stereo unspecified)
> 220 °C	Nc1nc(-c2c(-c3ccccc3)c3ccccc3[nH]c2=O)cs1
100 to 101 °C	CC(C)(C)c1cc(SC[Si](C)(C)C)cc(C(C)(C)C)c1O
96 to 98 °C	Cc1ccn(-c2ccc(C=O)cc2)n1
87 °C	CCOC(=O)C1=Cc2cc(-c3ccc(C)cc3)ccc2SC1
148 to 150 °C	CC(C)Oc1ccc(-c2nc3n(c2-c2ccncc2)CCC3)cc1
155 to 157 °C	N#CNC(=N)CCCc1ccccc1Sc1ccccc1CCCC(=N)NC#N
192 °C	Cc1ccccc1Sc1ccc2c(c1)CC[C@H]1NC(=O)CC[C@]21C
182 to 185 °C	c1cn(Cc2nc(-c3ccc4c(c3)OCO4)c3cc4c(cc3n2)OCO4)cn1
141 to 143 °C	CCc1n[nH]c(CC)c1Cc1cc(C#N)cc(C#N)c1
223 °C	CN1CC(=O)NC(=O)N1c1cc(Cl)c(Oc2ccc(S(C)(=O)=O)cc2)c(Cl)c1
60 to 62 °C	CCCOC(=O)CCc1cc(Cl)ccc1C(=O)CCCNC(C)=O
206 to 209 °C	COC(=O)c1cc(C(C)(C)C)c(OC(=O)c2cc(C(C)(C)C)c(O)c(C(C)(C)C)c2)c(C(C)(C)C)c1
177 to 178 °C	CCOC(=O)c1c(S(C)(=O)=O)n(C2CC2)c2c(OC)c(F)c(F)cc2c1=O
> 300 °C	O=c1[nH]c2cc(Cl)cc(Cl)c2cc1Br

melting point	SMILES
170 to 172 °C	O=CNc1ccccc1C1=NN(c2ccc(Cl)cc2)C(=O)C1
159 to 160 °C	CC(=O)OCC1OC(n2c(Br)c(C=O)c3cc(Cl)c(Cl)cc32)C(O)C1O (stereo unspecified)
146 to 148 °C	CCCCCNC(=O)[C@@H](Cc1ccc(OCC(=O)O)c(C(=O)O)c1)NC(=O)Cc1ccccc1OC
112 to 113 °C	CCN(CC)C(=O)n1cc(C(F)F)c(S(=O)(=O)c2cc(Cl)cc(Cl)c2)n1
56 to 58 °C	CCOC(=O)C(=O)N(CC)C(=O)OCCOc1ccc(Oc2ccccc2)cc1
148 to 149 °C	Cc1cc(OCc2cnc(-c3ccc(C(F)(F)F)cc3)cc2C(F)(F)F)ccc1OC(C)(C)C(=O)O
92 to 94 °C	CCOC(=O)c1nc(-c2cc(Cl)c(OC)c(OC)c2)cs1
165 to 166 °C	COC(=O)c1c(Cl)cc(Cl)cc1NC(=O)CSc1ccccc1C(=O)O
166 °C	COc1cc(N)c(Cl)cc1C(=O)N[C@H]1CCN(CCCC(=O)c2cccnc2)C[C@H]1OC (relative stereo)
105 to 106 °C	CCc1ncnc(NC2CCC3(CC2)OCC(c2ccccc2)O3)c1Cl (stereo unspecified)
91 to 93 °C	ON=C(c1ccccc1)c1cc(F)cc(F)c1
334 to 336 °C	O=C1Cc2ccc(-c3cnc4[nH]c(=O)n(CC5CCCCC5)c4n3)cc2N1
150 to 152 °C	COc1ccc(C(O)CN2c3nc(-c4ccncc4)cc(=O)n3CCC2c2ccccc2)cc1 (stereo unspecified)
110 to 114 °C	CN1C(=O)CC[C@]2(C)c3ccc(Sc4ccc5nc6ccccc6c(=O)n5n4)cc3CC[C@@H]12
86 to 88 °C	FC(F)(F)c1ccc2c(c1)N=Cc1ccccc1O2
148 to 150 °C	COC(=O)CNS(=O)(=O)c1c(C(=O)OC)sc2ccccc12
210 to 212 °C	Cc1nc2c(N)nc3ccccc3c2n1CCOCCNC(=O)c1ccccc1
111 to 114 °C	CN1C(=O)N(C[C@H](C(=O)O)[C@@H](CC2CCCC2)C(=O)N2CCCCC2)C(=O)C1(C)C
211 to 213 °C	Cc1nc(N)c2nc(CO)n(NC3CCC3)c2c1C
78 to 82 °C	CC(C)=CC1CC(C)=C(C)C2C(=O)OC(=O)C12 (stereo unspecified)
168 °C	COCc1ccc(Oc2cncc3sc(C(N)=O)cc23)cc1
67.5 to 68.9 °C	COc1ccc(C(=O)CCCC(=O)C(F)(F)F)cc1
196 to 198 °C	CCNc1nc(SC)ncc1C=Nc1cc(OC)cc(OC)c1Cl
176 to 179 °C	CC(C)(C)CNC(=O)c1ccc(Br)c(C(=O)O)c1
50 °C	CC(C)(C)OC(=O)CC(Cc1ccccc1)NC(=O)C1Cc2ccccc2N1S(=O)(=O)c1ccc(-c2cccc(C(F)(F)F)c2)cc1 (stereo unspecified)

melting point	SMILES
204 to 211 °C	COc1ncncc1NS(=O)(=O)c1cccc(Cl)c1Cl
149 to 150 °C	Cn1c(=O)n(Cc2ccccc2)c(=O)c2cc(I)ccc21
180 to 182 °C	O=C(O)COc1ccc2c(-c3ccccc3F)noc2c1Br
256 to 257 °C	CC1(C)OC(=O)Nc2c(F)cc(-c3cc(F)cc(C#N)c3)cc21
201 to 203 °C	CC(C)N(Cc1ccc2cc(NC(=O)c3ccc(-c4ccc(Cl)cc4)nc3)ccc2n1)C(C)C
181 to 183 °C	Cc1nc(-n2ccc(OCC3CCCO3)cc2=O)sc1C(=O)NCc1ccccc1 (stereo unspecified)
159 to 161 °C	Cn1cc(C(=O)c2ccc(F)cc2)cc1C(=O)c1ccccn1
62 to 63 °C	COc1cc2ccc(C)cc2c(C(C)C)c1OC
151 to 154 °C	O=C(O)c1csnc1-c1cc(C(F)(F)F)cc(C(F)(F)F)c1
144 to 146 °C	COC1(c2ccc(OC(C)=O)cc2)Sc2ccccc2N(C)C1=O (stereo unspecified)
162 °C	COc1ccc(C(C)N(C)CCCOc2ccc(S(=O)(=O)c3ncc(-c4ccccc4)n3-c3ccccc3)cc2)cc1OC (stereo unspecified)
231 to 233 °C	CC12CCC(O)CC1=CCC1C2CCC2(C)C(c3cncnc3)=CCC12 (stereo unspecified)
169 to 170 °C	CCOC(=O)c1cn(CC)c2nc(C=O)c(OCC)cc2c1=O
97 °C	Cc1nc(-c2ccccc2)nc(-c2ccccn2)n1
187 °C	CCOC(=O)c1cn(C)c2cnc3cc(F)c(N4CC5(C)CC4CC(C)(C)C5)cc3c2c1=O (stereo unspecified)
148 to 150 °C	CN(N)C(=S)Nc1ccc(F)cc1
179 to 185 °C	CNC(=O)c1cccc(F)c1Nc1nc(Nc2ccc3c(c2)N(C(C)=O)CC(=O)NC3)ncc1Cl
108 to 110 °C	CCOC(=O)COc1ccc(C(=O)c2ccccc2O)c(Cl)c1Cl
169 to 171 °C	O=C(c1ccccc1SSc1ccccc1C(=O)N1CCC(CO)C1)N1CCC(CO)C1 (stereo unspecified)
105 to 107 °C	OC(Cc1ccccn1)c1ccccc1 (stereo unspecified)
104 to 106 °C	CCCCOC(=O)C1CC(n2cnc3c(Cl)ncnc32)C(O)C1O (stereo unspecified)
190 to 191 °C	Cc1ccc(O)c(Cl)n1
128 to 130 °C	NC(=O)c1cc(C(F)(F)F)cc(F)c1F

SMILES	melting point
Cn1nnc(-c2ccc(C#CC3(O)CN4CCC3CC4)cc2)n1 (stereo unspecified)	228 to 230 °C
CCOC(=O)c1ncn2c1C1C=CCN1C(=O)c1c(F)cccc1-2 (stereo unspecified)	200 to 201 °C
Cc1c(C2=CCC(c3cccc(F)c3)(N(C)C)CC2)[nH]c2ccccc12 (stereo unspecified)	157 to 163 °C
